Measured values: ChEMBL document CHEMBL1177837, “5-Isopropylidene-3-ethyl rhodanine induce growth inhibition followed by apoptosis in leukemia cells” (Eur J Med Chem, 2010)
Calls of active or inactive are those of the source.

Experiments:
Format in all cases: functional, cell-based
CCRF-CEM [1] = assay: Cell cycle arrest in human CEM cells assessed as accumulation at G1 phase after 72 hrs by FACS
CCRF-CEM [2] = assay: Cytotoxicity against human CEM cells at 100 uM after 48 hrs by trypan blue exclusion assay
CCRF-CEM [3] = assay: Cell cycle arrest in human CEM cells assessed as accumulation at G2 phase after 72 hrs by FACS
CCRF-CEM [4] = assay: Cytotoxicity against human CEM cells at 50 uM after 48 hrs by trypan blue exclusion assay
CCRF-CEM [5] = assay: Cytotoxicity against human CEM cells at 250 uM after 48 hrs by trypan blue exclusion assay
CCRF-CEM [6] = assay: Cell cycle arrest in human CEM cells assessed as accumulation at S phase after 72 hrs by FACS
CCRF-CEM [7] = assay: Cell cycle arrest in human CEM cells assessed as accumulation at sub G1 phase after 72 hrs by FACS
CCRF-CEM [8] = assay: Cytotoxicity against human CEM cells assessed as LDH release after at 10 to 250 uM; conditions: TDE = time-dependent effect
CCRF-CEM [9] = assay: Cell cycle arrest in human CEM cells assessed as accumulation at G2/M phase after 72 hrs by FACS

Measured: Activity

CCN1C(=O)C(=C(C)C)SC1=S
active: CCRF-CEM [1] Dose-dependent effect | CCRF-CEM [2] | CCRF-CEM [3] Dose-dependent effect | CCRF-CEM [4] | CCRF-CEM [5] | CCRF-CEM [6] Dose-dependent effect | CCRF-CEM [7] Dose-dependent effect | CCRF-CEM [8] tde | CCRF-CEM [9] Dose-dependent effect
